These results are taken from US20250250251A1, “PIPERIDINYLPYRIDINYLCARBONITRILE DERIVATIVES AS INHIBITORS OF GLUTAMINYL-PEPTIDE CYCLOTRANSFERASE AND GLUTAMINYL-PEPTIDE CYCLOTRANSFERASE LIKE PROTEIN” (Boehringer Ingelheim International GmbH, priority 2024, published 2025).

Where two headings read alike, the source gives them in different places.

For series [1], the system named is SIRPα signalling induced by Raji cells. Briefly: Assay B: SIRPα signalling assay using Raji cells. In kind it is cell-based. Particulars: Homo sapiens, Table 5, prior art compounds, read-out: Inhibition of SIRPα signalling induced by Raji cells: IC50. Put shortly:
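SIRPα signalling induced by Raji cells in a PathHunter reporter line, read as β-galactosidase complementation luminescence. Detection reagent 1 added for 15 min, then reagent 2 for 60 min in the dark, both at room temperature.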

In series [2] the test system is SIRPα signalling induced by A549 cells. The experiment in a line: Assay B: SIRPα signalling assay using A549 cells. In kind it is cell-based. Particulars: Homo sapiens, Table 5, prior art compounds, read-out: Inhibition of SIRPα signalling induced by A549 cells: IC50. The procedure, abridged:
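Raji or A549 cells (5000/well) were each incubated with serially diluted compound for 48 h at 37 °C. Jurkat PathHunter SIRPαV1 reporter cells (15000/well) were then added for 5 h. Beta-galactosidase luminescence gave IC50 via a 4-parameter sigmoidal fit.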

The subject of another series is CYP3A4 mRNA. The experiment in a line: Assay D: CYP induction screening assay in primary human hepatocytes. In kind it is in vitro ADME. As to conditions: Table 10, prior art compounds, 48 h. Put shortly: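 Single-donor cryopreserved human hepatocytes on collagen with Matrigel overlay were exposed to test compound at […] (0.1% DMSO) for 48 h, medium renewed at 24 h. CYP3A4 mRNA quantified by QuantiGene Plex/Luminex, normalised to geometric mean of RPL32, EIF4E2, GUSB and expressed relative to solvent control.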

The next series deals with murine hepatocytes. Briefly: Assay E: stability in murine hepatocytes. In kind it is in vitro ADME, mouse. As to conditions: Table 13, prior art compounds, 1 μM, 5% species serum. The procedure, abridged: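 Cryopreserved mouse hepatocytes, typically 1 Mio cells/mL in medium with 5% species serum, were dosed at 1 μM compound (0.05% DMSO) at 37 °C and sampled over 0–6 h. Parent decline was measured by HPLC-MS/MS and CLint calculated from dose/AUC, then scaled by well-stirred liver model.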

Series [3] addresses T1, isolated QPCTL (Homo sapiens, UniProt Q9NXS2). Particulars: as disclosed in WO 2023/205173; read-out: inhibitory activity on isolated QPCTL, IC50; cited from earlier work.
Another series has as its target T2, QPCTL (Homo sapiens, UniProt Q9NXS2).
T2 construct: made in house
Briefly: Assay A: biochemical QPCTL activity assay (MALDI-TOF MS, CD47 peptide substrate). As to conditions: Table 3, prior art compounds, read-out: Inhibition of QPCTL: IC50. The procedure, abridged:
(§1)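 Enzyme and compound pre-incubated 10 min at 24° C in 20 mM Tris pH 7.5 with TCEP, BSA, Tween20, then 40 min with CD47 peptide (10 μM for QPCTL, 20 μM for QPCT). Pyroglutamate product/internal standard ratio by MALDI-TOF MS, normalized to controls; four-parameter logistic fit.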

Another series has as its target T3, QPCT (Homo sapiens, UniProt Q16769).
T3 construct: purchased Origine (OriGene) TP700028
The experiment in a line: Assay A: biochemical QPCT activity assay (MALDI-TOF MS, CD47 peptide substrate). As to conditions: Table 3, prior art compounds, read-out: Inhibition of QPCT: IC50. Put shortly: as §1

Series [4] can be described thus: Assay C: permeability in CACO-2 cells. In kind it is in vitro ADME. Particulars: human, Caco-2, pH 7.2. Put shortly: (§2)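 Caco-2 monolayers were grown 10–25 days on porous filter inserts. Compound was applied to the apical or basolateral donor side for A-B or B-A transport (3 filters), and the receiver was sampled for up to 2 h. Quantitation was by HPLC-MS/MS or scintillation; efflux ratio = B-A/A-B permeability.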
A general note: Caco-2 monolayers are a common model of the intestinal barrier.

Series [5] deals with T1, isolated QPCTL. Particulars: as disclosed in WO 2024/020517; read-out: Inhibitory activity on isolated QPCTL, IC50; cited from earlier work.
The next series concerns CACO-2 cells. The experiment in a line: Assay C: permeability in CACO-2 cells. The class given is in vitro ADME. As to conditions: pairs with and without 4-fluoropiperidyl, CACO2 cells. Put shortly: as §2

T1 sequence (Q9NXS2 whole entry): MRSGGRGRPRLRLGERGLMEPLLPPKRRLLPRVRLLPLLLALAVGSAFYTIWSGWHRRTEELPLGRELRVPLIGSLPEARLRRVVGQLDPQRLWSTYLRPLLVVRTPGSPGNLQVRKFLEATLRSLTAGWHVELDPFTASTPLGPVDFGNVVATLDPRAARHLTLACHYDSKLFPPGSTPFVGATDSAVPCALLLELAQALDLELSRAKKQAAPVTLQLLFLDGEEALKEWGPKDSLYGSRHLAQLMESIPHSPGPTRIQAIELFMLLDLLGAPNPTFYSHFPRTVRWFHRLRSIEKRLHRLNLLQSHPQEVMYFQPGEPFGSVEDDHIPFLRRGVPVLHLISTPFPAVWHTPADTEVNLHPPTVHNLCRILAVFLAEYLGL
T2 sequence (Q9NXS2 whole entry, species assumed): as the sequence (Q9NXS2 whole entry) above
T3 sequence (Q16769 29-361): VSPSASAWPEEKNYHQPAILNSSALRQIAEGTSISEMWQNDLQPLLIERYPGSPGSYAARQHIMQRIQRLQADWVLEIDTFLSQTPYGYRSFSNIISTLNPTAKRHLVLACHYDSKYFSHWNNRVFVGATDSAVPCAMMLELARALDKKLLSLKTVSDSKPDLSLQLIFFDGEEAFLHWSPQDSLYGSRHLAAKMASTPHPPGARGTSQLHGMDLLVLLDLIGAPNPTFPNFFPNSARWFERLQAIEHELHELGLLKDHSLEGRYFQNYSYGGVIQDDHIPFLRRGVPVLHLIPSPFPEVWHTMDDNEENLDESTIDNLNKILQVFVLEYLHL

`Cn1c(N)nnc1C1CCN(c2c(C#N)cccc2-c2ccc(F)nc2)CC1` [Compound 14, reference compound]: the values for the IC50 (in series [1]; in series [2]; on isolated QPCTL [3]) were 4 nM, 4 nM and less than 1000 nM, respectively. The “n-fold induction of CYP3A4 at 10 μM” value with CYP3A4 mRNA turned out to be 1.9 n-fold. Besides, the “Mouse Hepatocyte Stability QH” value with murine hepatocytes was 33%.

Turning to `COc1ccc(-c2ccnnc2)c(N2CCC(c3nncn3C)CC2)c1C#N` [Compound 26, reference compound], the IC50 (usually the concentration that inhibits the measured activity by half) on QPCTL is 1 nM; at QPCT, 2 nM; in series [1], 452 nM; in series [2], 208 nM; at isolated QPCTL [5], less than 100 nM. The apical-to-basolateral permeability (Papp A→B) (in general, the apparent permeability from the apical to the basolateral side of a cell layer) in series [4] is less than 0.02 ×10⁻⁶ cm/s. In addition, the efflux ratio in series [4] (read-out: Efflux Ratio) was greater than 135. Also, the “n-fold induction of CYP3A4 at 10 μM” value in the series with CYP3A4 mRNA came to 1.1 n-fold. The “Mouse Hepatocyte Stability QH” value with murine hepatocytes is on record as 19%.

For `Cn1cnnc1C1CCN(c2c(C#N)cccc2-c2ccnnc2)CC1` [Compound 11], the results for the IC50 (in [2]; at isolated QPCTL [5]) were 70 nM and less than 100 nM, respectively. For the same molecule, the “CACO2 Perm.” value in the series on CACO-2 cells is given as 0.3 10^−6 cm/sec.
